Test results as given in article PMC10499988 (Nature Communications, 2023).
Like-named read-outs stand apart in the source and are kept apart here. Positions of bridges follow the written chain, without caps; N, C: chain ends. Residues, ends and D or L forms follow the SMILES beside them.

Legend:
[1] = target: T1, HSA (Homo sapiens, UniProt P02768); parameters: purchased Sigma-Aldrich A4327-1G; settings: cited from earlier work
[2] = In vivo pharmacokinetic experiment, plasma LC-MS after tail vein injection
Description: All the procedures and experiments involving animals were carried out using a protocol approved by the Health Sciences Laboratory Animal Services (HSLAS), University of Alberta. The protocol was approved as per the Canadian Council on Animal Care (CCAC) guidelines. Approved protocol # AUP00002467. All mice (Strain: C57BL/6J) were maintained in pathogen-free conditions at the University of Alberta breeding facility. Housed on ventilated caging (Tecniplast); Temperature: 21 +/− 2 degrees Celsius; Humidity: 30–70% rH; Light Cycle: 12 L:12D. […] Peptide mixtures of 100 µM were prepared in PBS. Mice were administered with 200 µL of the peptide mixture solution with tail veil injection. A series of 6 blood samples were collected at time points from 2 min up to 240 min (Fig. 6B: 2 min, 60 min; Fig. 6C–E: 2 min, 60 min, 180 min; Supplementary Fig. 32: 2 min, 5 min, 30 min, 60 min, 120 min, 240 min). Samples were collected in tubes that contained sodium citrate as an anticoagulant and then centrifuged at 5 min at 2000 × g to collect the blood plasma. 10 µL of plasma portion were transferred into a tube containing 40 µL of 8:2 acetonitrile/water to precipitate proteins. The samples were centrifuged at 17,000 × g for 10 min at 4 °C. Supernatants were then transferred to new tubes and subjected to analysis by LC-MS. […]
assays. The fluorescent-labeled peptides w ere dissolved to 10 m M in D M SO and diluted to 20 µM in DM SO for use. Each well contained 19 µL of HSA in PBSwith the range of final […]
1 µL of 20 µM of fluorescentlly labeled peptide was added to the wells to a final concentration of 1 µM . Each measuring point was made in duplicate. Before measuring, the plate was centrifuged 500×g for 5 min at RT, incubated for 10 m in, and shaken for 5 m in the dark. The m easurem ent w as perform ed in Cytation5 Cell Imaging Multi-Mode Reader from BioTek. The data were analyzed and processed in […]
26. […]
prepared with the identical buffer as the peptides to a final concentration of 40 µM . […] The data were evaluated using the MicroCalTM OriginTM Version 5.0. […]

[3] = target: T1, HSA; settings: 19F NMR competition
[4] = target: Serum albumin (Homo sapiens) (UniProt P02768); settings: cited from earlier work
[5] = Reactivity of macrocycles with thiol nucleophiles; type: physicochemical; settings: several hours, basic pH
Source text: 6-10 Å and the PM F of the pocket 1 starts to deviate from the others, we performed hydrogen bond interaction searches with 3.5 Å cut off distance between a donor and an acceptor at intermediate regime from umbrella sampling simulations. These findings […]
of the peptide to the pocket 1 binding site of albumin. This was supported by the fact that […]
simulation time (Supplementary Fig. 27). O verall, these findings provide im portant insights into the m echanism of binding betw een the peptide and album in, w hich could inform the design of future albumin-binding peptides with improved affinity and specificity. The concurrence of the docking results and the experimental binding data provides strong evidence that our simulations accurately predicted the binding for 14c.
Supplementary Fig. 7. […] The OFS-SWCRC […]
peptide was added with one equivalent of GSH in 60% acetonitrile in 50 mM Tris-HCl at pH 8.5.
The reaction was monitored by LC–MS.
Supplementary Fig. 8. Stability of the PFS stapled peptides (A ) Results of the PFS-SW CRC mixed with 2-mercaptoethanol and analyzed by LC–MS after 1 hour and 3 weeks. The PFS-SW CRC macrocycle was combined with 1 equivalent of 2-mercaptoethanol in 60% acetonitrile and 50 mM Tris-HCl at pH 8.5. The mixture was monitored by LC–MS. […]
spectrum of 1 mg of PFS- […] mixed with 1 mg of HSA over 19 days in PBS. The mixture was monitored by 19F NMR in PBS, 10% D2O

[6] = C57BL/6J, mouse, plasma, iv, 200 uL of 100 uM peptide mixture

CC[C@H](C)[C@H](NC(=O)[C@H](CC(C)C)NC(=O)[C@H](CCCNC(=N)N)NC(C)=O)C(=O)N[C@@H](CCC(=O)O)C(=O)N[C@@H](CC(=O)O)C(=O)N[C@H](C(=O)N[C@H]1CSSC[C@@H](C(=O)N[C@@H](CC(C)C)C(=O)N[C@@H](Cc2c[nH]c3ccccc23)C(=O)N[C@@H](CCC(=O)O)C(=O)N[C@@H](CC(=O)O)C(=O)N[C@@H](CC(=O)O)C(N)=O)NC(=O)CNC(=O)[C@H](Cc2c[nH]c3ccccc23)NC(=O)[C@H](CCCNC(=N)N)NC(=O)[C@@H]2CCCN2C(=O)[C@H](CC(C)C)NC1=O)[C@@H](C)CC [SA-21] (Ac-RLIEDICLPRWGCLWEDD-NH2; disulfide 7-13)
Kd ([1]; Discussion, reference not given, read-out: affinity of benchmark): 600 nM
Kd ([1]; read-out: binding affinity to HSA): ~500 nM
level at 2 min [2, 6]: 40000 ng/mL
level at 1 h [2, 6]: 30000 ng/mL
plasma concentration in 3 h study, in words ([2]; mice, tail vein, 2, 60, 180 min): indistinguishable

NC(=O)N1c2ccccc2C=Cc2ccccc21 [carbamazepine]
influence on binding of 14c to HSA [3]: none of these drugs influenced the binding of 14c

FITC-EYEYKpalmESE-NH2
Kd [4]: 39 nM

OFS-SWCRC
reactivity with glutathione (GSH) [5]: reacted with GSH over 3 hours
